Key:
CHK1 = assay: Western blotting, CHK1 level / CHK activity after ganetespib (FIG. 1); format: cell-based, human
Procedure: (§1) The LNCaP, 22Rv1, DU145 and PC3 human prostate cancer cell lines were all purchased from the American Type Culture Collection (Manassas, Va., USA). Cells were maintained and cultured according to standard techniques at 37° C. in 5% (v/v) CO2 using culture medium recommended by the supplier. All primary antibodies were purchased from Cell Signaling Technology (Beverly, Mass., USA) with the exception of RAF1 (Santa Cruz Biotechnology, Santa Cruz, Calif., USA), p-EGFR (Tyr1068) (Invitrogen, Carlsbad, Calif., USA) and actin (GE Healthcare, UK). The Hsp90 inhibitors ganetespib and 17-AAG were synthesized at Synta Pharmaceuticals Corp.
(§2) Prostate cancer cell lines were lysed in RIPA buffer (Cell Signaling Technology, Beverly, Mass. USA). Lysates were clarified by centrifugation and equal amounts of protein resolved by SDS-PAGE before transfer to nitrocellulose membranes. Membranes were blocked with 5% skim milk in TBS with 0.5% Tween and immunoblotted with indicated antibodies. Antigen-antibody complexes were visualized using an Odyssey system (LI-COR, Lincoln, Nebr., USA).

CDK1 = assay: Western blotting, CDK1 level after ganetespib (FIG. 1); format: cell-based, human
Procedure: as §1, §2

B-raf = settings: cited from earlier work

SMILES: CC(C)c1cc(-c2nnc(O)n2-c2ccc3c(ccn3C)c2)c(O)cc1O [ganetespib, 3-(2,4-DIHYDROXY- 5-ISOPROPYL- PHENYL)-4-(1- METHYL-INDOL- 5-YL)-5- HYDROXY- [1,2,4]TRIAZOLE]
- disruption of CHK activity by inhibition of Hsp90 activity (CHK1): highly effective in disrupting CHK activity
- effect on stability of the DNA damage checkpoint CHK1 (CHK1; FIG. 1): destabilizes
- effect on stability of the master cell cycle regulator CDK1 (CDK1): destabilizes

SMILES: C=CCNC1=C2C[C@@H](C)C[C@H](OC)[C@H](O)[C@@H](C)/C=C(\C)[C@H](OC(N)=O)[C@@H](OC)/C=C\C=C(/C)C(=O)NC(=CC1=O)C2=O [Compound 17AAG]
- degradation of B-raf (B-raf; cancer cells treated with 17AAG): stimulate the degradation of B-raf
- sensitivity of B-raf mutants E586K and L597V to degradation (B-raf; cells treated with 17AAG): not sensitive to degradation
- rate of B-raf degradation, V600E mutant vs wild type (B-raf; melanoma cell line A375 (V600E) vs CHL cells (wild type B-raf)): degraded more rapidly than in CHL cells
- rate of degradation of B-raf mutants V600D, G469A, G469E, G596R, G466V, G594V (B-raf; transvected into COS cells): degraded more rapidly than wild type B-raf

— patent publication US20140194388A1, “COMBINATION THERAPY OF HSP90 INHIBITORY COMPOUNDS WITH CHK INHIBITORS” (SYNTA PHARMACEUTICALS CORP., priority 2011, published 2014)
